Results on 24 compounds are retold here after US20250170141A1, “MRGPRX2 MODULATORS AND RELATED METHODS OF TREATMENT” (Escient Pharmaceuticals, Inc., priority 2023, published 2025).

The structures appear in SMILES notation.

The assay has as its target T1, human MRGPRX2 (Homo sapiens, UniProt Q96LB1).
T1 construct: expressed in transfected cells; host or cells: CHO cells, stably transfected (G418 and Hygromycin B selection)
T1 sequence (Q96LB1 1-330): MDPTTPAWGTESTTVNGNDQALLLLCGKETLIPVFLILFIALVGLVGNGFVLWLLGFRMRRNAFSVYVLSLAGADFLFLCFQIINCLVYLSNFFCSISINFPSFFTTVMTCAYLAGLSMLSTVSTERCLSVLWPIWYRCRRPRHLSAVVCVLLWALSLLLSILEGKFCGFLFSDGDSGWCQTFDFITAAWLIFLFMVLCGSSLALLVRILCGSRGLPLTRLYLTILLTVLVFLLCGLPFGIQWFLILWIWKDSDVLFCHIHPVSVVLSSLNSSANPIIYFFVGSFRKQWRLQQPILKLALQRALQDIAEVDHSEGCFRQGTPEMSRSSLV
Put plainly: MRGPRX2 activity: IP-One Gq HTRF assay in CHO cells, antagonism versus 0.3 uM Cortistatin-14. In kind it is cell-based. The settings on record: versus 0.3 uM Cortistatin-14 agonist, CHO cells expressing human MRGPRX2, read-out: MRGPRX2 Antagonist Activity. As to the method:
CHO cells stably transfected to express human MRGPRX2 were maintained in an incubator at 37° C. with 5% CO2 and grown in F12 (HAM) media with 10% fetal bovine serum (FBS), 1% Glutamax, 1% penicillin/streptomycin, 800 μg/mL Geneticin (G418), and 300 μg/mL Hygromycin B.
Cells were plated in a 384-well assay plate at 20,000 cells per well in 12 μL of Opti-MEM and kept in an incubator overnight. On the day of the assay, compounds solubilized at 10 mM in DMSO were added as a 10-point curve (30 uM final top concentration with 1:3 serial dilutions) using a Tecan D300E digital dispenser. Agonists were diluted in assay buffer (final concentrations of 5.7 mM Tris-HCl, 43 mM NaCl, 50 mM LiCl, pH=8) and 2 μL of the agonist Cortistatin-14 (CPC Scientific, catalog CORT-002) are added to each well. Final concentrations of agonists were 0.3 μM Cortistatin. Final concentrations of DMSO were kept consistent across the plate. Plates were incubated in the dark for 1 h at 37° C. and then for 1 h at room temperature. IP-1 standards and HTRF detection reagents were added according to the IP-One—Gq Kit purchased from Cisbio (part number 62IPAPEJ) and incubated in the dark for 1 h at room temperature. The plate was read on a Molecular Devices SpectraMax iD5 plate reader. The HTRF ratio was calculated from the raw data and graphed using GraphPad Prism to calculate an IC50 value for each compound.
The activity ranges are denoted as follows: “+++++” denotes antagonist activity <100 nM; “++++” denotes antagonist activity between 100 and 500 nM; “+++” denotes activity between 501 and 1000 nM; “++” denotes activity between 1001 and 2500 nM; and “+” denotes activity >2500 nM.
As to `O=S1(=O)N=C(NCc2ncccc2F)Nc2c(Oc3ccccc3Cl)c(F)cc(F)c21` [Compound 1-1, 5-(2-chlorophenoxy)-6,8-difluoro-3-(((3-fluoropyridin-2-yl)methyl)amino)-4H-benzo[e][1,2,4]thiadiazine 1,1-dioxide], the IC50 was in the range of 100 to 500 nM. Take `O=S1(=O)N=C(NCc2ccccc2F)Nc2c1ccc(F)c2Oc1ccccc1Cl` [Compound 1-2, 5-(2-chlorophenoxy)-6-fluoro-3-((2-fluorobenzyl)amino)-4H-benzo[e][1,2,4]thiadiazine 1,1-dioxide]: the IC50 is less than 100 nM. Next, `COc1cccc(CNC2=NS(=O)(=O)c3ccc(F)c(Oc4ccccc4Cl)c3N2)c1` [Compound 1-3, 5-(2-chlorophenoxy)-6-fluoro-3-((3-methoxybenzyl)amino)-4H-benzo[e][1,2,4]thiadiazine 1,1-dioxide]: 100 to 500 nM; `Cc1ccc2c(c1Oc1ccccc1Cl)NC(NCc1ncccc1F)=NS2(=O)=O` [Compound 1-4, 5-(2-chlorophenoxy)-3-(((3-fluoropyridin-2-yl)methyl)amino)-6-methyl-4H-benzo[e][1,2,4]thiadiazine 1,1-dioxide]: less than 100 nM; `O=S1(=O)N=C(NCc2ncccc2F)Nc2c1cc(F)c(F)c2Oc1ccccc1Cl` [Compound 1-5, 5-(2-chlorophenoxy)-6,7-difluoro-3-(((3-fluoropyridin-2-yl)methyl)amino)-4H-benzo[e][1,2,4]thiadiazine 1,1-dioxide]: less than 100 nM. Next, `O=S1(=O)N=C(NCc2ncccc2Cl)Nc2c1cc(F)c(F)c2Oc1ccccc1Cl` [Compound 1-6, 5-(2-chlorophenoxy)-3-(((3-chloropyridin-2-yl)methyl)amino)-6,7-difluoro-4H-benzo[e][1,2,4]thiadiazine 1,1-dioxide]: less than 100 nM; `COc1cccnc1CNC1=NS(=O)(=O)c2cc(F)c(F)c(Oc3ccccc3Cl)c2N1` [Compound 1-7, 5-(2-chlorophenoxy)-6,7-difluoro-3-(((3-methoxypyridin-2-yl)methyl)amino)-4H-benzo[e][1,2,4]thiadiazine 1,1-dioxide]: 100 to 500 nM; `N#Cc1ccccc1Oc1c(F)ccc2c1NC(NCc1ncccc1F)=NS2(=O)=O` [Compound 1-8, 2-((6-fluoro-3-(((3-fluoropyridin-2-yl)methyl)amino)-1,1-dioxido-4H-benzo[e][1,2,4]thiadiazin-5-yl)oxy)benzonitrile]: less than 100 nM. In the case of `O=S1(=O)N=C(NCc2ncccc2F)Nc2c1ccc(F)c2Oc1c(Cl)cccc1Cl` [Compound 1-9, 5-(2,6-dichlorophenoxy)-6-fluoro-3-(((3-fluoropyridin-2-yl)methyl)amino)-4H-benzo[e][1,2,4]thiadiazine 1,1-dioxide] it was less than 100 nM; in that of `O=S1(=O)N=C(NCc2ncccc2F)Nc2c1ccc(F)c2Oc1cccc(Cl)c1Cl` [Compound 1-10, 5-(2,3-dichlorophenoxy)-6-fluoro-3-(((3-fluoropyridin-2-yl)methyl)amino)-4H-benzo[e][1,2,4]thiadiazine 1,1-dioxide], less than 100 nM; in that of `O=S1(=O)N=C(NCc2cccc(F)c2)Nc2c1ccc(F)c2Oc1ccccc1Cl` [Compound 1-11, 5-(2-chlorophenoxy)-6-fluoro-3-((3-fluorobenzyl)amino)-4H-benzo[e][1,2,4]thiadiazine 1,1-dioxide], less than 100 nM. On to `O=S1(=O)N=C(NCc2ccc(F)cc2)Nc2c1ccc(F)c2Oc1ccccc1Cl` [Compound 1-12, 5-(2-chlorophenoxy)-6-fluoro-3-((4-fluorobenzyl)amino)-4H-benzo[e][1,2,4]thiadiazine 1,1-dioxide], for which the IC50 was in the range of 100 to 500 nM. With `Cc1ccc(NC2=NS(=O)(=O)c3ccc(F)c(Oc4ccccc4Cl)c3N2)cc1` [Compound 1-13, 5-(2-chlorophenoxy)-6-fluoro-3-(p-tolylamino)-4H-benzo[e][1,2,4]thiadiazine 1,1-dioxide], the IC50 is more than 2500 nM. Next, `O=S1(=O)N=C(NCc2ncc(F)cc2F)Nc2c1ccc(F)c2Oc1ccccc1Cl` [Compound 1-14, 5-(2-chlorophenoxy)-3-(((3,5-difluoropyridin-2-yl)methyl)amino)-6-fluoro-4H-benzo[e][1,2,4]thiadiazine 1,1-dioxide]: less than 100 nM; `O=S1(=O)N=C(NCc2ncccc2F)Nc2c1ccc(F)c2Oc1ccccc1F` [Compound 1-15, 6-fluoro-5-(2-fluorophenoxy)-3-(((3-fluoropyridin-2-yl)methyl)amino)-4H-benzo[e][1,2,4]thiadiazine 1,1-dioxide]: 100 to 500 nM.

Take `O=S1(=O)N=C(NCc2ncccc2F)Nc2c1ccc(F)c2Oc1ccc(Cl)cc1Cl` [Compound 1-16, 5-(2,4-dichlorophenoxy)-6-fluoro-3-(((3-fluoropyridin-2-yl)methyl)amino)-4H-benzo[e][1,2,4]thiadiazine 1,1-dioxide]: the IC50 lay in the range of 100 to 500 nM. Regarding `O=S1(=O)N=C(NCc2ncccc2F)Nc2c1ccc(F)c2Oc1c(F)cccc1Cl` [Compound 1-17, 5-(2-chloro-6-fluorophenoxy)-6-fluoro-3-(((3-fluoropyridin-2-yl)methyl)amino)-4H-benzo[e][1,2,4]thiadiazine 1,1-dioxide], the IC50 lay in the range of 100 to 500 nM. In the case of `O=S1(=O)N=C(NCc2ncccc2F)Nc2c1ccc(F)c2Oc1ccc(F)cc1Cl` [Compound 1-18, 5-(2-chloro-4-fluorophenoxy)-6-fluoro-3-(((3-fluoropyridin-2-yl)methyl)amino)-4H-benzo[e][1,2,4]thiadiazine 1,1-dioxide] it was less than 100 nM; in that of `O=S1(=O)N=C(NCc2ncccc2F)Nc2c1ccc(F)c2Oc1cccc(F)c1Cl` [Compound 1-19, 5-(2-chloro-3-fluorophenoxy)-6-fluoro-3-(((3-fluoropyridin-2-yl)methyl)amino)-4H-benzo[e][1,2,4]thiadiazine 1,1-dioxide], less than 100 nM. Next, `COc1ccc(F)c(CNC2=NS(=O)(=O)c3ccc(F)c(Oc4ccccc4Cl)c3N2)c1` [Compound 1-20, 5-(2-chlorophenoxy)-6-fluoro-3-((2-fluoro-5-methoxybenzyl)amino)-4H-benzo[e][1,2,4]thiadiazine 1,1-dioxide]: 1000 to 2500 nM; `COc1ccc(F)c(CNC2=NS(=O)(=O)c3ccc(F)c(Oc4ccccc4Cl)c3N2)n1` [Compound 1-21, 5-(2-chlorophenoxy)-6-fluoro-3-(((3-fluoro-6-methoxypyridin-2-yl)methyl)amino)-4H-benzo[e][1,2,4]thiadiazine 1,1-dioxide]: 501 to 1000 nM. Next, `O=S1(=O)N=C(NCc2ccccc2C(F)(F)F)Nc2c1cc(F)c(F)c2Oc1ccccc1Cl` [Compound 1-22, 5-(2-chlorophenoxy)-6,7-difluoro-3-((2-(trifluoromethyl)benzyl)amino)-4H-benzo[e][1,2,4]thiadiazine 1,1-dioxide]: 100 to 500 nM. As to `O=S1(=O)N=C(NCc2cc(F)ccc2F)Nc2c1ccc(F)c2Oc1ccccc1Cl` [Compound 1-23, 5-(2-chlorophenoxy)-3-((2,5-difluorobenzyl)amino)-6-fluoro-4H-benzo[e][1,2,4]thiadiazine 1,1-dioxide], the IC50 is less than 100 nM. In the case of `Cc1c(F)cccc1CNC1=NS(=O)(=O)c2ccc(F)c(Oc3ccccc3Cl)c2N1` [Compound 1-24, 5-(2-chlorophenoxy)-6-fluoro-3-((3-fluoro-2-methylbenzyl)amino)-4H-benzo[e][1,2,4]thiadiazine 1,1-dioxide] it was less than 100 nM.
